Assay: log p (partition coefficient octanol/water, determined experimentally from reversed phase HPLC)
Assay type: physicochemical
Details: reversed phase hplc
Description: [log p=logarithm of the partition coefficient p of the substance between the solvents octanol and water, determined experimentally from reversed phase HPLC]

Compound	chromatographic logP (A isomer)	chromatographic logP (B isomer)	chromatographic logP
CCON=C(COc1ccc(-c2ccc(C3COC(c4c(F)cccc4F)=N3)cc2)cc1)c1cccc(C(F)(F)F)c1 (stereo not shown) [Example 122]	6.18	5.87	
CC(=NOC(C)C)C(C)Oc1ccc(-c2ccc(C3COC(c4c(F)cccc4Cl)=N3)cc2)cc1 (stereo not shown) [Example 123]	6.15	6.3	
CC(COc1ccc(-c2ccc(C3COC(c4c(F)cccc4Cl)=N3)cc2)cc1)=NOC(C)C (stereo not shown) [Example 124]	5.78	5.88	
C=CCON=C(C)COc1ccc(-c2ccc(C3COC(c4c(F)cccc4Cl)=N3)cc2)cc1 (stereo not shown) [Example 125]	5.04	5.11	
CC(COc1ccc(-c2ccc(C3COC(c4c(F)cccc4Cl)=N3)cc2)cc1)=NOCc1ccccc1 (stereo not shown) [Example 126]	5.45	5.53	
CON=C(C)C(C)Oc1ccc(-c2ccc(C3COC(c4c(F)cccc4F)=N3)cc2)cc1Cl (stereo not shown) [Example 127]	5.06	5.15	
CON=C(COc1ccc(-c2ccc(C3COC(c4c(F)cccc4F)=N3)cc2)cc1)c1ccc(Cl)cc1 (stereo not shown) [Example 130]	5.27	5.54	
CCON=C(COc1ccc(-c2ccc(C3COC(c4c(F)cccc4F)=N3)cc2)cc1)c1ccc(Cl)cc1 (stereo not shown) [Example 131]	5.61	5.54	
O=C(COc1ccc(-c2ccc(C3COC(c4c(F)cccc4F)=N3)cc2)cc1)c1cc(Cl)ccc1Cl (stereo not shown) [Example 132]			4.78
CON=C(COc1ccc(-c2ccc(C3COC(c4c(F)cccc4F)=N3)cc2)cc1)c1ccc(C)cc1 (stereo not shown) [Example 133]	5.07	5.35	
CCON=C(COc1ccc(-c2ccc(C3COC(c4c(F)cccc4F)=N3)cc2)cc1)c1ccc(C)cc1 (stereo not shown) [Example 134]	5.42	5.71	
CC(COc1ccc(-c2ccc(C3COC(c4ccccc4Cl)=N3)cc2)cc1)=NOC(C)C (stereo not shown) [Example 135]	5.53	5.61	
CC(=NOC(C)C)C(C)Oc1ccc(-c2ccc(C3COC(c4ccccc4Cl)=N3)cc2)cc1 (stereo not shown) [Example 136]	5.88	6.02	
CC(COc1ccc(-c2ccc(C3COC(c4ccccc4Cl)=N3)cc2)cc1)=NOCc1ccccc1 (stereo not shown) [Example 137]	5.55	5.62	
CON=C(COc1ccc(-c2ccc(C3COC(c4c(F)cccc4F)=N3)cc2)cc1)c1ccc(C(F)F)cc1 (stereo not shown) [Example 138]	4.78	4.98	
CCON=C(COc1ccc(-c2ccc(C3COC(c4c(F)cccc4F)=N3)cc2)cc1)c1ccc(C(F)F)cc1 (stereo not shown) [Example 139]	5.07	5.31	
CON=C(COc1ccc(-c2ccc(C3COC(c4c(F)cccc4F)=N3)cc2)cc1)c1ccc(Cl)c(C)c1 (stereo not shown) [Example 140]	5.57	5.88	
CCON=C(COc1ccc(-c2ccc(C3COC(c4c(F)cccc4F)=N3)cc2)cc1)c1ccc(Cl)c(C)c1 (stereo not shown) [Example 141]	5.93	6.23	
C=CCON=C(C)COc1ccc(-c2ccc(C3COC(c4ccccc4Cl)=N3)cc2)cc1 (stereo not shown) [Example 142]	5.12	5.2	
C=CCON=C(C)C(C)Oc1ccc(-c2ccc(C3COC(c4ccccc4Cl)=N3)cc2)cc1 (stereo not shown) [Example 143]	5.45	5.57	
CCON=C(C)C(C)Oc1ccc(-c2ccc(C3COC(c4ccccc4Cl)=N3)cc2)cc1Cl (stereo not shown) [Example 144]	5.83	6.01	
CC(=NOC(C)C)C(C)Oc1ccc(-c2ccc(C3COC(c4ccccc4Cl)=N3)cc2)cc1Cl (stereo not shown) [Example 145]	6.3	6.44	

Compound	chromatographic logP (A isomer)	chromatographic logP (B isomer)	chromatographic logP
CC(=NOC(C)C)C(C)Oc1ccc(-c2ccc(C3COC(c4c(F)cccc4F)=N3)cc2)cc1Cl (stereo not shown) [Example 146]	5.87	6	
C=CCON=C(C)C(C)Oc1ccc(-c2ccc(C3COC(c4c(F)cccc4F)=N3)cc2)cc1Cl (stereo not shown) [Example 147]	5.49	5.58	
Cc1ccc(C(=O)COc2ccc(-c3ccc(C4COC(c5c(F)cccc5F)=N4)cc3)cc2)cc1C (stereo not shown) [Example 148]			4.62
CON=C(COc1ccc(-c2ccc(C3COC(c4c(F)cccc4F)=N3)cc2)cc1)c1ccc(OC)cc1 (stereo not shown) [Example 149]	4.7	4.91	
CCON=C(COc1ccc(-c2ccc(C3COC(c4c(F)cccc4F)=N3)cc2)cc1)c1ccc(OC)cc1 (stereo not shown) [Example 150]	5.04	5.27	
CC(=O)C(C)(C)Oc1ccc(-c2ccc(C3COC(c4c(F)cccc4Cl)=N3)cc2)cc1 (stereo not shown) [Example 151]			4.48
CC(=O)C(C)(C)Oc1ccc(-c2ccc(C3COC(c4ccccc4Cl)=N3)cc2)cc1 (stereo not shown) [Example 152]			4.56
CC(=O)C(C)(C)Oc1ccc(-c2ccc(C3COC(c4c(F)cccc4F)=N3)cc2)cc1Cl (stereo not shown) [Example 153]			4.61
CON=C(COc1ccc(-c2ccc(C3COC(c4c(F)cccc4F)=N3)cc2)cc1)c1ccc(CC(C)C)cc1 (stereo not shown) [Example 154]	6.34	6.05	
CCON=C(COc1ccc(-c2ccc(C3COC(c4c(F)cccc4F)=N3)cc2)cc1)c1ccc(CC(C)C)cc1 (stereo not shown) [Example 155]	6.7	6.36	
CON=C(COc1ccc(-c2ccc(C3COC(c4c(F)cccc4F)=N3)cc2)cc1)c1ccc(OC(F)(F)C(F)F)cc1 (stereo not shown) [Example 157]	5.28	5.04	
CCON=C(COc1ccc(-c2ccc(C3COC(c4c(F)cccc4F)=N3)cc2)cc1)c1ccc(OC(F)(F)C(F)F)cc1 (stereo not shown) [Example 158]	5.59	5.35	
CON=C(C)C(C)(C)Oc1ccc(-c2ccc(C3COC(c4c(F)cccc4Cl)=N3)cc2)cc1 (stereo not shown) [Example 160]			5.45
CCON=C(C)C(C)(C)Oc1ccc(-c2ccc(C3COC(c4c(F)cccc4Cl)=N3)cc2)cc1 (stereo not shown) [Example 161]			5.88
CC(=NO)C(C)(C)Oc1ccc(-c2ccc(C3COC(c4c(F)cccc4F)=N3)cc2)cc1 (stereo not shown) [Example 167]	3.82	3.39	
CON=C(C)C(C)(C)Oc1ccc(-c2ccc(C3COC(c4c(F)cccc4F)=N3)cc2)cc1Cl (stereo not shown) [Example 170]			5.61
CCON=C(C)C(C)(C)Oc1ccc(-c2ccc(C3COC(c4c(F)cccc4F)=N3)cc2)cc1Cl (stereo not shown) [Example 171]			5.05
CC(=O)C(C)(C)Oc1ccc(-c2ccc(C3COC(c4ccccc4Cl)=N3)cc2)cc1Cl (stereo not shown) [Example 173]			5.02
CON=C(C)C(C)(C)Oc1ccc(-c2ccc(C3COC(c4ccccc4Cl)=N3)cc2)cc1Cl (stereo not shown) [Example 175]			6.06
CCON=C(C)C(C)(C)Oc1ccc(-c2ccc(C3COC(c4ccccc4Cl)=N3)cc2)cc1Cl (stereo not shown) [Example 176]			6.49
CON=C(COc1ccc(-c2ccc(C3COC(c4c(F)cccc4F)=N3)cc2)cc1)c1ccc(C)c(C)c1 (stereo not shown) [Example 189]	5.58	5.29	
CCON=C(COc1ccc(-c2ccc(C3COC(c4c(F)cccc4F)=N3)cc2)cc1)c1ccc(C)c(C)c1 (stereo not shown) [Example 190]	5.94	5.62	

Source: US6211214A, “Biphenyl ether oxazolines and their use as pest-control agents” (Bayer Aktiengesellschaft, priority 1995, dated 2001)
